Where two headings read alike, the source gives them in different places.
Tests used:
GlyT1 transporter = biological target: T1, GlyT1 transporter (Homo sapiens, UniProt P48067); test: GlyT1 transporter [3H]-glycine uptake SPA assay in HEK293 cells; type: cell-based; conditions: for IC50: HEK293 cells expressing the Glycine (Type 1) transporter
T1 construct: expressed in transfected cells
T1 sequence (P48067 1-706): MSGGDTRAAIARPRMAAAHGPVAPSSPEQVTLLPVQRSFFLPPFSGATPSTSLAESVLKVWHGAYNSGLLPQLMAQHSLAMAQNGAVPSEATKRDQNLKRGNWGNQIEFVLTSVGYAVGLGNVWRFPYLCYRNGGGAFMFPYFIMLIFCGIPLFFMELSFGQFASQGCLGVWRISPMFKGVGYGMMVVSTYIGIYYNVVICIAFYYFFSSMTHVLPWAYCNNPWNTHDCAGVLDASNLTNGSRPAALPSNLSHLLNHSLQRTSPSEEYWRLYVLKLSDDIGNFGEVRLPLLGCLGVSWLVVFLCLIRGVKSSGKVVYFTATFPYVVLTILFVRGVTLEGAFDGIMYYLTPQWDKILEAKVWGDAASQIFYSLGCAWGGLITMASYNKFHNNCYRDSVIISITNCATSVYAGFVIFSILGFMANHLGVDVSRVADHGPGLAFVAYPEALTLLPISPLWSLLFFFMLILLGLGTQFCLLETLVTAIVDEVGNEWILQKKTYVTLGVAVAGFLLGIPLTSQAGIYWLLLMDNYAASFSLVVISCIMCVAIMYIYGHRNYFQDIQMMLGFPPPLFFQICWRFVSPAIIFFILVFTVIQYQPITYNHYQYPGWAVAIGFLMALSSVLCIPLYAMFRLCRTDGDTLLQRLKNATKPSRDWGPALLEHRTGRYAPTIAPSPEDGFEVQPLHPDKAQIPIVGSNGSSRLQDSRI
Method: The affinities of the compounds of this invention for the GlyT1 transporter were determined by the following assay:
HEK293 cells expressing the Glycine (Type 1) transporter were grown in cell culture medium [DMEM/NUT mix F12 containing 2 mM L-Glutamine, 0.8 mg/mL G418 and 10% heat inactivated fetal calf serum] at 37° C. and 5% CO2. Cells grown to 70-80% confluency in T175 flasks were harvested and frozen. For the assay, cells were defrosted and resuspended at 1.32×10^6 cells/mL in assay buffer [140 mM NaCl, 5.4 mM KCl, 1.8 mM CaCl2, 0.8 mM MgSO4, 20 mM HEPES, 5 mM glucose and 5 mM alanine, pH 7.4]. Compounds were serially diluted either 3-fold or 4-fold in DMSO from a top concentration of 2.5 mM with each compound giving a 11 data point dose-response. 100 nL of compound at each concentration was added to the assay plate. An equal volume of Leadseeker™ WGA SPA beads (12.5 mg/ml suspended in assay buffer) was added to the cell suspension (1.32×106) and 5 uL of the cell/bead suspension transferred to each well of a LV384-well white solid bottom plate (3300 cells/well) containing 100 nL of test compounds. Substrate (5 uL) was added to each well [1:100 dilution of [3H]-glycine stock in assay buffer containing 2.5 uM glycine). Final DMSO concentration was 1% v/v. Data was collected using a Perkin Elmer Viewlux™. pIC50 values were determined using ActivityBase™.

GlyT2 = biological target: T2, GlyT2 (Homo sapiens, UniProt Q9Y345); test: Affinity for GlyT1 compared with GlyT2 (statement, no method given); conditions: qualitative statement on the parent compound; no value given
T2 sequence (Q9Y345 1-797): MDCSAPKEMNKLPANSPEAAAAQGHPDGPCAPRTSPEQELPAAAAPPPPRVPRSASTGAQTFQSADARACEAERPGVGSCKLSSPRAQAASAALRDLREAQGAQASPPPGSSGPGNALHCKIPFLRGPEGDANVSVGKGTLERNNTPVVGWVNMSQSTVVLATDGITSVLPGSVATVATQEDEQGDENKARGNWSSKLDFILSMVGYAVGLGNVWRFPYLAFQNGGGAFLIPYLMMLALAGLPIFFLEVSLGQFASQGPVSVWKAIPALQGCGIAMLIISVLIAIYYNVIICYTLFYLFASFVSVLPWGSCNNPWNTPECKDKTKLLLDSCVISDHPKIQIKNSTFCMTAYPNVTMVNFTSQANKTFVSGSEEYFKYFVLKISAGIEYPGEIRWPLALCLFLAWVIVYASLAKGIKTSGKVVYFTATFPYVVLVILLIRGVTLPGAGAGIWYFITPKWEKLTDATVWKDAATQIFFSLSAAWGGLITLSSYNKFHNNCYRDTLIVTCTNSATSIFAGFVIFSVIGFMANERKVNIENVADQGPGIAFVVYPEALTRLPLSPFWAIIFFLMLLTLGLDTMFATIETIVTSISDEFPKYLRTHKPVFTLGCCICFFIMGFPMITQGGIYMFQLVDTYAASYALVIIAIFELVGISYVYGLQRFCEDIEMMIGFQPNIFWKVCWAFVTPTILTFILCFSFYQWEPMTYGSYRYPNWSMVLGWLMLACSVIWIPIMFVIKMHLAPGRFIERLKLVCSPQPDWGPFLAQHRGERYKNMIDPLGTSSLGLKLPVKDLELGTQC

For `COc1cc(C(F)(F)F)cc(C(F)(F)F)c1C(=O)NC(c1ccccc1)C(C)(C)N1CCCC1` (stereo not shown) [2-(methyloxy)-N-[2-methyl-1-phenyl-2-(1-pyrrolidinyl)propyl]-4,6-bis(trifluoromethyl)benzamide], the “inhibition of the glycine transporter type GlyT1 (result in words)” value (GlyT1 transporter; qualitative statement on the parent compound, no value given) was “inhibitor of the glycine transporter type GlyT1” and the “affinity for GlyT1 relative to GlyT2 (selectivity, result in words)” value (GlyT2) was “greater affinity for GlyT1 than for GlyT2”.
With `COc1cc(C(F)(F)F)cc(C(F)(F)F)c1C(=O)N[C@H](c1ccccc1)C(C)(C)N1CCCC1` [R-(−)-2-(Methyloxy)-N-[2-methyl-1-phenyl-2-(1-pyrrolidinyl)propyl]-4,6-bis(trifluoromethyl)benzamide 1,5-heminapadisylate] the IC50 (GlyT1 transporter; n=1, read-out: pIC50 at the GlyT1 transporter (converted)) was 0.00501 µM.
`COc1cc(C(F)(F)F)cc(C(F)(F)F)c1C(=O)N[C@H](c1ccccc1)C(C)(C)N1CCCC1` [R-(−)-2-(Methyloxy)-N-[2-methyl-1-phenyl-2-(1-pyrrolidinyl)propyl]-4,6-bis(trifluoromethyl)benzamide monosuccinate] showed an IC50 (GlyT1 transporter; n=5, read-out: average pIC50 at the GlyT1 transporter (converted)) of 0.0158 µM.
